In article PMC11555526, “Development of 2-Aminoadenine-Based Proteolysis-Targeting Chimeras (PROTACs) as Novel Potent Degraders of Monopolar Spindle 1 and Aurora Kinases” (ACS Pharmacology & Translational Science, 2024):
pEC50: −log10 of the molar value.

How the values were obtained:
[1] = biological target: T1, AURKB (MV4-11^AURKB-HiBiT cells) (Homo sapiens, UniProt Q96GD4); experiment: HiBiT assay, AURKB degradation; assay type: cell-based; conditions: 6 h treatment; for DC50: read-out: DC50 (half-maximal degradation concentration) AURKB
T1 construct: expressed in transfected cells; host or cells: MV4-11, lentiviral transduction (pRRL-PGK vector)
In short: (§1)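 MV4-11 lines stably expressing HiBiT-tagged AURKA, AURKB or TTK (lentiviral) were treated with serial compound dilutions for the indicated times. Remaining tagged protein was read by lytic HiBiT luminescence, and DC50 was fitted with a four-parameter dose–response equation using concentrations showing sigmoidal behaviour.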

[2] = test system: MV4-11 cells (naive); experiment: alamarBlue cell viability assay; assay type: cell-based, human; conditions: 72 h treatment, MV4-11 cells (naive); read-out: EC50 (concentration that decreases cell viability by 50%)
In short: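 Cells exposed to compound concentration series or vehicle for 72 h (unless otherwise stated); alamarBlue added a few hours before end point. Read-out by fluorescence (ex 550/em 600 nm) or absorbance (570 nm, 600 nm reference).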

[3] = biological target: T2, TTK (MV4-11^HiBiT-TTK cells) (Homo sapiens, UniProt P33981); experiment: HiBiT assay, TTK degradation; assay type: cell-based; parameters: key to Dmax (maximal degradation) TTK: compounds with degradation less than 15% reported as “inactive”; conditions: 6 h treatment, MV4-11^HiBiT-TTK cells; for DC50: read-out: DC50 (half-maximal degradation concentration) TTK
T2 construct: expressed in transfected cells; host or cells: MV4-11, lentiviral transduction (pRRL-PGK-HiBiT entry vector)
T2 sequence (P33981 1-857): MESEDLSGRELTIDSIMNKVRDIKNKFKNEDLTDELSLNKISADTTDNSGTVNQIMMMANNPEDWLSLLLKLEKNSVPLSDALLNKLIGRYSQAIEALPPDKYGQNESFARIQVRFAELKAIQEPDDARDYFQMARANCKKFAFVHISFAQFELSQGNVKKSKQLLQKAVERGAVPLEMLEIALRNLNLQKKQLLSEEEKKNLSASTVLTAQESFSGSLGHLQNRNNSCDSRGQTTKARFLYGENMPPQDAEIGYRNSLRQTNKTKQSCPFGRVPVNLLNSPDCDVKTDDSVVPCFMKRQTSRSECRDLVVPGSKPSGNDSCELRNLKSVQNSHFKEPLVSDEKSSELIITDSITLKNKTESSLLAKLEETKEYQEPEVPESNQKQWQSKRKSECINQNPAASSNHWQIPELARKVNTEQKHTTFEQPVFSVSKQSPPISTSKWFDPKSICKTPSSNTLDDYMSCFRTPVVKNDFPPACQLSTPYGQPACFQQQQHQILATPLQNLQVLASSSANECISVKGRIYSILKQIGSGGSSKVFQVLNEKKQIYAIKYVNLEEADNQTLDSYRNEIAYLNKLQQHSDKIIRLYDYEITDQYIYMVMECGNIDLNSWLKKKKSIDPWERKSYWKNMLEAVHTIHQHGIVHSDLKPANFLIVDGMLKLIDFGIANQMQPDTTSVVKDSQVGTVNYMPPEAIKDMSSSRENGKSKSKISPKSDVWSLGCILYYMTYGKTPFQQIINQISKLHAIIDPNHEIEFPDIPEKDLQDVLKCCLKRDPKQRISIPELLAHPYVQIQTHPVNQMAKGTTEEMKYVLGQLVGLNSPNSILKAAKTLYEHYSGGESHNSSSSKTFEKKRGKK
In short: as §1

T1 sequence (Q96GD4 1-345 isoform Q96GD4-5): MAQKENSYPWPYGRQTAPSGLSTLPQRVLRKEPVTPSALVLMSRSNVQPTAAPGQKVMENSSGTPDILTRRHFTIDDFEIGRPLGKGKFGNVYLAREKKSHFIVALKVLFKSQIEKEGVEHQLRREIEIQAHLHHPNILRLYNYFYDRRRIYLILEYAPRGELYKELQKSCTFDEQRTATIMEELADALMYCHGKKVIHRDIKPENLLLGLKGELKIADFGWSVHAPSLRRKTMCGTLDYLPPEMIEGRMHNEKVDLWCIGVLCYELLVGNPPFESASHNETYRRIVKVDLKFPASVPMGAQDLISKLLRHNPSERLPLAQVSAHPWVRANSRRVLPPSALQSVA

Dmax (maximal degradation) AURKB [1] [%]	DC50 [1] [nM]	pEC50 [2]	Dmax (maximal degradation) TTK [3]	DC50 [3] [nM]	Structure (SMILES)	DC50 (half-maximal degradation concentration) AURKB [1]	DC50 (half-maximal degradation concentration) TTK [3]
38.80	168	6.67	28.50%	396	CC(C)S(=O)(=O)c1ccccc1Nc1nc(Nc2ccc(N3CCN(C(=O)CCCC(=O)Nc4cccc5c4C(=O)N(C4CCC(=O)NC4=O)C5=O)CC3)cc2)nc2[nH]cnc12 (centres unmarked) [Compound 14]		
29.40	248	6.24	48.33%	281	CC(C)S(=O)(=O)c1ccccc1Nc1nc(Nc2ccc(N3CCN(C(=O)CNC(=O)CCCC(=O)Nc4cccc5c4C(=O)N(C4CCC(=O)NC4=O)C5=O)CC3)cc2)nc2[nH]cnc12 (centres unmarked) [Compound 20]		
20.30		5.94	inactive		Cc1ncsc1-c1ccc(CNC(=O)[C@@H]2C[C@@H](O)CN2C(=O)[C@@H](NC(=O)CCCC(=O)N2CCN(c3ccc(Nc4nc(Nc5ccccc5S(=O)(=O)C(C)C)c5nc[nH]c5n4)cc3)CC2)C(C)(C)C)cc1 [Compound 44]	– (compounds with degradation less than 25% were not calculated and reported as “–”)	– (compounds with degradation less than 25% were not calculated and reported as “–”)
32.17	3690	5.59	47.40%	5710	Cc1ncsc1-c1ccc(CNC(=O)[C@@H]2C[C@@H](O)CN2C(=O)[C@@H](NC(=O)COCCOCC(=O)N2CCN(c3ccc(Nc4nc(Nc5ccccc5S(=O)(=O)C(C)C)c5nc[nH]c5n4)cc3)CC2)C(C)(C)C)cc1 [Compound 49]		
